Measurements as given in ChEMBL document CHEMBL5050851, “Compounds that induce ferroptic cell death” (2020).
Calls of active or inactive are those of the source. The rule behind the calls is not given here.

Experiments:
[1] = system: HCT-116; assay: Antiproliferative activity against human HCT-116 cells assessed as cell death after 72 hrs by Alamar blue viability assay; type: functional, cell-based; conditions: HCT-116, 72 h
[2] = system: ES-2; assay: Antiproliferative activity against human ES2 cells assessed as cell death after 72 hrs by Alamar blue viability assay; type: functional, cell-based; conditions: ES-2, 72 h
[3] = system: HCT-116; assay: Induction of cell death in human HCT-116 cells at 5 to 25 uM in presence of 100 uM DFO and measured after 10 hrs; type: functional, cell-based; conditions: dose 5-25 µM
[4] = system: ES-2; assay: Induction of ROS production in human ES2 cells at 5 to 25 uM measured by carboxy-H2DCFDA fluorescence assay; type: functional, cell-based; conditions: dose 5-25 µM
[5] = system: ES-2; assay: Induction of apoptosis in human ES2 cells assessed as change in chromatin condensation; type: functional, cell-based
[6] = system: A549; assay: Induction of cell death in human A549 cells at 5 to 25 uM in presence of 100 uM DFO and measured after 12 hrs; type: functional, cell-based; conditions: dose 5-25 µM
[7] = system: A549; assay: Induction of cell death in human A549 cells at 5 to 25 uM in presence of 2 uM ferrostatin-1 and measured after 12 hrs; type: functional, cell-based; conditions: dose 5-25 µM
[8] = system: ES-2; assay: Induction of ROS-induced lipid peroxidation in human ES2 cells at 10 uM measured after 1 hr; type: functional, cell-based
[9] = system: ES-2; assay: Antiproliferative activity against human ES2 cells at 10 uM pretreated with 25 uM pan-caspase inhibitor Q-VD-OPh and assessed as induction of cell death measured after 13 hrs; type: functional, cell-based
[10] = system: ES-2; assay: Induction of PARP-1 cleavage in human ES2 cells measured after 1 to 7 hrs; type: functional, cell-based; conditions: time 1-7 hrs
[11] = system: ES-2; assay: Induction of ROS-induced lipid peroxidation in human ES2 cells at 10 uM pretreated with DFO and measured after 1 hr; type: functional, cell-based
[12] = system: HCT-116; assay: Induction of cell death in human HCT-116 cells at 5 to 25 uM in presence of 250 uM trolox and measured after 10 hrs; type: functional, cell-based; conditions: dose 5-25 µM
[13] = system: HCT-116; assay: Induction of cell death in human HCT-116 cells at 5 to 25 uM in presence of 2 uM ferrostatin-1 and measured after 10 hrs; type: functional, cell-based; conditions: dose 5-25 µM
[14] = system: MIA PaCa-2; assay: Antiproliferative activity against human MIA PaCa-2 cells at 10 uM assessed as time to induce 50% cell death measured by Annexin V/propidium iodide staining method; type: functional
[15] = system: 4T1; assay: Antitumor activity against mouse 4T1 cells xenografted immunocompetent Balb/c mouse assessed as tumor growth inhibition at 50 mg/kg, ip administered twice a week as 5 doses; type: functional; conditions: 4T1, ip, read-out: TGI
[16] = AUC in C57BL/6 mouse at 40 mg/kg, ip; type: ADME, organism-based; parameters: dose 40 mg/kg; conditions: in vivo
[17] = system: A549; assay: Induction of cell death in human A549 cells at 5 to 25 uM in presence of 250 uM trolox and measured after 12 hrs; type: functional, cell-based; conditions: dose 5-25 µM
[18] = system: HCT-116; assay: Induction of PARP-1 cleavage in human HCT-116 cells measured after 1 to 7 hrs; type: functional, cell-based; conditions: time 1-7 hrs
[19] = system: HCT-116; assay: Induction of cell death in human HCT-116 cells at 5 to 25 uM in presence of 5 mM NAC and measured after 10 hrs; type: functional, cell-based; conditions: dose 5-25 µM
[20] = system: Escherichia coli; assay: Antibacterial activity against Escherichia coli; type: functional
[21] = system: 4T1; assay: Induction of cell death in mouse 4T1 cells at 5 to 25 uM in presence of 2 uM ferrostatin-1 and measured after 18 hrs; type: functional, cell-based; conditions: dose 5-25 µM
[22] = system: ES-2; assay: Induction of cell death in human ES2 cells at 5 to 25 uM in presence of 100 uM DFO and measured after 14 hrs; type: functional, cell-based; conditions: dose 5-25 µM
[23] = system: ES-2; assay: Induction of apoptosis in human ES2 cells assessed as change in cell membrane blebbing; type: functional, cell-based
[24] = system: A549; assay: Induction of cell death in human A549 cells at 5 to 25 uM in presence of 5 mM NAC and measured after 12 hrs; type: functional, cell-based; conditions: dose 5-25 µM
[25] = system: HCT-116; assay: Induction of ROS-induced lipid peroxidation in human HCT-116 cells at 10 uM pretreated with DFO and measured after 1 hr; type: functional, cell-based
[26] = system: HCT-116; assay: Antiproliferative activity against human HCT-116 cells at 10 uM assessed as time to induce 50% cell death measured by Annexin V/propidium iodide staining method; type: functional
[27] = system: 4T1; assay: Induction of ROS-induced lipid peroxidation in mouse 4T1 cells at 10 uM pretreated with DFO and measured after 1 hr; type: functional, cell-based
[28] = system: HCT-116; assay: Induction of ROS-induced lipid peroxidation in human HCT-116 cells at 10 uM measured after 1 hr; type: functional, cell-based
[29] = system: HCT-116; assay: Induction of ROS production in human HCT-116 cells at 5 to 25 uM measured by carboxy-H2DCFDA fluorescence assay; type: functional, cell-based; conditions: dose 5-25 µM
[30] = system: ES-2; assay: Induction of cell death in human ES2 cells at 5 to 25 uM in presence of 250 uM trolox and measured after 14 hrs; type: functional, cell-based; conditions: dose 5-25 µM
[31] = target: T1, Phospholipid hydroperoxide glutathione peroxidase GPX4 (Homo sapiens) (UniProt P36969); assay: Inhibition of GPX4 in human ES2 cells at 10 uM measured after 1 hr by phosphotidylcholine hydroperoxide (PCOOH) LC-MS based assay relative to control; type: cell-based
T1 sequence (whole entry): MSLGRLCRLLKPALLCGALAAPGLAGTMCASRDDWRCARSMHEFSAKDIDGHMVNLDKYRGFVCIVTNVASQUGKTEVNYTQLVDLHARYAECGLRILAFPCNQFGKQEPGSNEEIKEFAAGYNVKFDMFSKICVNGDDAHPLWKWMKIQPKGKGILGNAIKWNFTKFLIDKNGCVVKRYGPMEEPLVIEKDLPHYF

[32] = target: T2, Thioredoxin, mitochondrial (Homo sapiens) (UniProt Q99757); assay: Inhibition of human thioredoxin at 0.5 to 10 uM measured after 30 mins relative to control; conditions: dose 0.5-10 µM
T2 sequence (whole entry): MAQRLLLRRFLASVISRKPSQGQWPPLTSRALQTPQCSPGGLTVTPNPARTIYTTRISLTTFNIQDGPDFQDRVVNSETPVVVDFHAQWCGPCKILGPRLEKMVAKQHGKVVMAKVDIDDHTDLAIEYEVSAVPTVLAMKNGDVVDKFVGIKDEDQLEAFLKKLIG

[33] = system: 4T1; assay: Induction of cell death in mouse 4T1 cells at 5 to 25 uM in presence of 100 uM DFO and measured after 18 hrs; type: functional, cell-based; conditions: dose 5-25 µM
[34] = Half-life in C57BL/6 mouse at 40 mg/kg, ip; type: ADME, organism-based; conditions: in vivo
[35] = system: 4T1; assay: Antitumor activity against mouse 4T1 cells xenografted immunodeficient SCID mouse assessed as tumor growth at 50 mg/kg, ip administered twice a week as 5 doses; type: functional, organism-based
[36] = system: HFF-1; assay: Antiproliferative activity against human HFF-1 cells after 72 hrs by Alamar blue viability assay; type: functional, cell-based; conditions: HFF-1, 72 h
[37] = target: T2, Thioredoxin, mitochondrial (Homo sapiens); assay: Inhibition of thioredoxin in human HCT-116 cells at 20 uM relative to control; type: cell-based
[38] = system: 4T1; assay: Induction of cell death in mouse 4T1 cells at 5 to 25 uM in presence of 250 uM trolox and measured after 18 hrs; type: functional, cell-based; conditions: dose 5-25 µM
[39] = Hemolytic activity in human RBC measured by hemolysis assay; type: toxicity, cell-based; conditions: erythrocyte
[40] = system: 4T1; assay: Induction of ROS-induced lipid peroxidation in mouse 4T1 cells at 10 uM measured after 1 hr; type: functional, cell-based
[41] = system: ES-2; assay: Induction of cell death in human ES2 cells at 5 to 25 uM in presence of 2 uM ferrostatin-1 and measured after 14 hrs; type: functional, cell-based; conditions: dose 5-25 µM
[42] = system: ES-2; assay: Induction of ROS production in human ES2 cells at 10 to 25 uM measured by MitoSox red fluorescence assay; type: functional, cell-based; conditions: dose 10-25 µM
[43] = system: ES-2; assay: Antiproliferative activity against human ES2 cells at 10 uM assessed as time to induce 50% cell death measured by Annexin V/propidium iodide staining method; type: functional
[44] = system: Staphylococcus aureus; assay: Antibacterial activity against Staphylococcus aureus; type: functional
[45] = system: HCT-116; assay: Antiproliferative activity against human HCT-116 cells at 10 uM pretreated with 25 uM pan-caspase inhibitor Q-VD-OPh and assessed as induction of cell death measured after 13 hrs; type: functional, cell-based
[46] = system: MCF-10A; assay: Antiproliferative activity against human MCF-10A cells after 72 hrs by Alamar blue viability assay; type: functional, cell-based

SMILES: C[C@@H]1CC[C@@]23C[C@H](O)C(=O)[C@@]2(O)[C@]1(C)[C@H](OC(=O)CCl)C[C@@H](C1=CCC2C(=O)N(c4ccccc4)C(=O)C2C1)[C@@H]3C (stereo partly drawn)
- IC50 [1]: 6.4 µM
- IC50 [2]: 2.5 µM

SMILES: CC(=O)OCC(=O)O[C@@H]1C[C@@H](C2=CCn3c(=O)n(-c4ccccc4)c(=O)n3C2)[C@H](C)[C@@]23CC[C@@H](C)[C@]1(C)[C@]2(O)C(=O)[C@@H](O)C3
- IC50 [1]: > 100 µM
- IC50 [2]: > 100 µM

SMILES: CO[C@H]1C[C@@]23CC[C@@H](C)[C@@](C)([C@H](OC(C)=O)C[C@@H](C4=CCn5c(=O)n(-c6ccccc6)c(=O)n5C4)[C@@H]2C)[C@]3(O)C1=O
- IC50 [1]: > 100 µM
- IC50 [2]: > 100 µM

SMILES: C[C@@H]1CC[C@@]23C[C@H](O)C(=O)[C@@]2(O)[C@]1(C)[C@H](OC(=O)CF)C[C@@H](C1=CCn2c(=O)n(-c4ccccc4)c(=O)n2C1)[C@@H]3C
- IC50 [1]: > 100 µM
- IC50 [2]: 34 µM

SMILES: C#CCN1C(=O)C2CC=C([C@@H]3C[C@@H](OC(=O)CCl)[C@]4(C)[C@H](C)CC[C@]5(C[C@H](O)C(=O)[C@]54O)[C@H]3C)CC2C1=O (stereo partly drawn)
- IC50 [1]: 10.5 µM
- IC50 [2]: 4 µM

SMILES: CO[C@H]1C[C@@]23CC[C@@H](C)[C@@](C)([C@H](OC(=O)C(Cl)Cl)C[C@@H](C4=CCn5c(=O)n(-c6ccccc6)c(=O)n5C4)[C@@H]2C)[C@]3(O)C1=O
- IC50 [1]: > 100 µM
- IC50 [2]: > 100 µM

SMILES: C[C@@H]1CC[C@@]23C[C@H](O)C(=O)[C@@]2(O)[C@]1(C)[C@H](OC(=O)CCl)C[C@@H](C1=CCn2c(=O)n(-c4ccccc4)c(=O)n2C1)[C@@H]3C
- Activity [3]: inactive
- Activity [4]: Active
- Activity [5]: inactive
- Activity [6]: inactive
- Activity [7]: inactive
- Activity [8]: Active
- Activity [9]: Active
- Activity [10]: inactive
- Activity [11]: inactive
- Activity [12]: inactive
- Activity [13]: inactive
- IC50 [1]: 3.5 µM
- Time [14]: 1.5 h
- inhibition in vivo at 50 mg/kg [15]: 40%
- AUC [16]: 7040 ng·h/mL
- Activity [17]: inactive
- Activity [18]: inactive
- Activity [19]: inactive
- MIC [20]: > 64 µg/mL
- Activity [21]: inactive
- Activity [22]: inactive
- Activity [23]: inactive
- Activity [24]: inactive
- Activity [25]: inactive
- Time [26]: 7 h
- Activity [27]: inactive
- Activity [28]: Active
- Activity [29]: Active
- Activity [30]: inactive
- inhibition [31]: inactive
- inhibition [32]: Active
- Activity [33]: inactive
- IC50 [2]: 1.6 µM
- half-life [34]: 9.96 min
- Activity [35]: inactive
- IC50 [36]: 4.1 µM
- inhibition [37]: Active
- Activity [38]: inactive
- Activity [39]: Non-Toxic
- Activity [40]: Active
- Activity [41]: inactive
- Activity [42]: Active
- Time [43]: 1 h
- MIC [44]: > 64 µg/mL
- Activity [45]: Active
- IC50 [46]: 3.1 µM
